Molecules are shown by their SMILES. Starred links: 1 amine or outer side, 2 acyl side, 3 side chain; linkers in the order of their positions; H or OH if unused. Non-standard residues stand in square brackets, D forms with d. Residues, ends and D or L forms follow the SMILES beside them. X1 = CC[C@@H](C)[C@@H](O[*:1])C(=O)[*:2]; NMeVal(β-OH) = CN[C@H](C(=O)O)C(C)(C)O; NMeF = CN[C@@H](Cc1ccccc1)C(=O)O; aIle = CC[C@@H](C)[C@H](N)C(=O)O; NMeV = CN[C@H](C(=O)O)C(C)C

For test [1], the system named is YPH499-HIS-GAL-AUR1 complemented with ScIPCS. Put plainly: Agar diffusion assay, yeast mutant rescued with ScIPCS. Conditions: FIG. 5A; 25 μM Aureobasidin A, 1 mM myriocin, 25 μM cycloheximide spotted. The test is classed as cell-based, S. cerevisiae. On the procedure: (§1) A. Volumes of 1, 2 and 3 μl of 25 μM Aureobasidin A (AbA), 1 mM myriocin (MYR), 25 μM cycloheximide (CYC) and DMSO as a control (CTL) spotted onto yeast plates prepared as described in Experimental Procedures. B. Volumes of 1, 2 and 3 μl of 100 μM Aureobasidin A spotted onto yeast plates prepared as described in Experimental Procedures.
(§2) YPH499—wild type yeast; ScIPCS—YPH499-HIS-GAL-AUR1 pRS426 ScIPCS; LmIPCS—YPH499-HIS-GAL-AUR1 pRS426 LmIPCS; AGD—yeast sphingolipid bypass mutant, negative control.
(§3) Agar diffusion assay—Wild type YPH499 yeast and the transgenic strain YPH499-HIS-GAL-AUR1 complemented with ScIPCS or LmIPCS were assayed for susceptibility to Aureobasidin A (Takara), myriocin (Sigma) and cycloheximide (Sigma) as previously described (19). Briefly, 2.4×10^7 logarithmically dividing cells were embedded in 15 ml of YPD agararose (2% dextrose, 1% yeast extract, 2% peptone, 0.8% agarose) on […] square Petri dishes (Sarstedt). Inhibitors were applied in DMSO at the concentrations described below and the dishes incubated at 30° C.
(§4) In this study, the diffusion assay system previously described, with the sphingolipid bypass mutant (AGD) as a negative control, was utilized (6,19).

The next test deals with Wild type YPH499 yeast. Put plainly: Agar diffusion assay, wild type yeast. It is filed as cell-based, S. cerevisiae. The following applies: FIG. 5A; 25 μM Aureobasidin A, 1 mM myriocin, 25 μM cycloheximide spotted. On the procedure:
as §1, §2, §3, §4

Test [2] relates to YPH499-HIS-GAL-AUR1 complemented with LmIPCS. Description: Agar diffusion assay, yeast mutant rescued with LmIPCS. The test is classed as cell-based, S. cerevisiae. On the procedure:
as §1, §2, §3, §4
Background: A growth-free zone around the sample is the usual read-out of agar diffusion tests.

For a further test, the system named is T. cruzi enzyme (TcIPCS). Conditions: even at levels 1000 fold higher than that which inhibit the S. cerevisiae enzyme; crude parasite membrane extracts; cited from earlier work.
For test [3], the system named is parasites without an active sphingolipid biosynthetic pathway. Description: Effect on Leishmania parasites without an active sphingolipid biosynthetic pathway. The test is classed as cell-based. The following applies: 20 μM; data not shown.
The test system of test [4] is AGD yeast sphingolipid bypass mutant. Description: Agar diffusion assay, sphingolipid bypass mutant (negative control). The test is classed as cell-based, S. cerevisiae. The following applies: 100 μM Aureobasidin A. On the procedure: as §1, §2, §3, §4
The next test relates to insect stage Leishmania. Put plainly: Effect on insect stage Leishmania in culture. The test is classed as cell-based. The following applies: 20 μM; data not shown.
A further test deals with T1, IPC synthase (Saccharomyces cerevisiae, UniProt P36107).
T1 sequence (P36107 1-401): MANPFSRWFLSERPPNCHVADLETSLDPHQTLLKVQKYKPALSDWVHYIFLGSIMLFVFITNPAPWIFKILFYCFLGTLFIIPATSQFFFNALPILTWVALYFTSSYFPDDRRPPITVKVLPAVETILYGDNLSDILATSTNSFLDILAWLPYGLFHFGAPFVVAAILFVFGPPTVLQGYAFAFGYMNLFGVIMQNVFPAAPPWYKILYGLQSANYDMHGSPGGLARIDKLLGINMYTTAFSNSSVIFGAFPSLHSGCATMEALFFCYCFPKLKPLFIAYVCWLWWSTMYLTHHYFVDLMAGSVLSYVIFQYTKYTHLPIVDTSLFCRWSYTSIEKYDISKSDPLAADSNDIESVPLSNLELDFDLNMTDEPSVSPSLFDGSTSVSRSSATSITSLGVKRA
T1 sequence (Q06346 1-221 partner): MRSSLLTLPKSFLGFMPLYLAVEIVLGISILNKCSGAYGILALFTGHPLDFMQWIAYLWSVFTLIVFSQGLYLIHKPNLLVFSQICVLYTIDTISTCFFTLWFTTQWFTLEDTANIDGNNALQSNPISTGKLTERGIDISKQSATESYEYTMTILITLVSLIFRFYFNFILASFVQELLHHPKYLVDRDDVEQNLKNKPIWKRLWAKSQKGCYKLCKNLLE
Conditions: with respect to ceramide; cited from earlier work.

Test [5] has as its system samples from fungal Aspergillus spp. Conditions: lack of susceptibility attributed to efflux; cited from earlier work.
Setting [6] is: FIG. 5A, 1, 2 and 3 μl of 25 μM Aureobasidin A, 1 mM myriocin, 25 μM cycloheximide spotted, 30° C.

For `CCCCCCC(=O)CCCCCC/C=C/C[C@@H](O)[C@H](O)[C@@](N)(CO)C(=O)O` [myriocin], the “susceptibility in agar diffusion assay” value (in [1]; in the test with Wild type YPH499 yeast; in test [2] (setting [6])) was “sensitive” throughout. The “sensitivity compared with wild-type or mutant rescued with ScIPCS” value in test [2] (FIG. 5A, 1 mM myriocin) is reported as “increased sensitivity”.
With `C=C1/C=C(\C)[C@H](CC)CC(=O)[C@H](C)C(=O)[C@@](O)(CO)C/C(OC)=C/[C@@H](C)C1` [rustmicin], the “T. cruzi enzyme activity” value in the test with T. cruzi enzyme (TcIPCS) is recorded as “unaffected”.
`C[C@@H]1C[C@@H]([C@H](O)CC2CC(=O)NC(=O)C2)C(=O)[C@@H](C)C1` [cycloheximide]: the “susceptibility in agar diffusion assay” value (in test [1]; in the test with Wild type YPH499 yeast; in test [2] (setting [6])) was “sensitive” throughout.
As for `CC[C@@H](C)[C@@H]1NC(=O)[C@@H]2CCCN2C(=O)[C@H](Cc2ccccc2)N(C)C(=O)[C@H](Cc2ccccc2)NC(=O)[C@H](C(C)C)N(C)C(=O)[C@@H]([C@H](C)CC)OC(=O)[C@H](C(C)(C)O)N(C)C(=O)[C@H](CC(C)C)NC(=O)[C@H](C(C)C)N(C)C1=O` [Aureobasidin A] (cyclo(F[NMeF]P[aIle][NMeV]L[NMeVal(β-OH)][X1][NMeV])), the “activity against parasites in which LmIPCS is redundant, relative to insect stage Leishmania” value in [3] is reported as “equivalent activity”. For the same compound, in test [4], the “inhibitory effect on growth” value was “lack of an inhibitory effect”. In addition, in the test on insect stage Leishmania, the “effect against insect stage Leishmania in culture” value is recorded as “exhibited an effect”. For the same compound, in the test on insect stage Leishmania, the “specificity of the inhibitor in Leishmania culture” value is on record as “non-specific”. The “susceptibility in agar diffusion assay” value in [1] was “sensitive”; with Wild type YPH499 yeast, “sensitive”; in [2] (setting [6]) it was “resistant”; in [2] (FIG. 5B, 100 μM Aureobasidin A, 1, 2 and 3 μl spotted) it was “sensitivity of LmIPCS to the drug was evident”. For the same compound, the mode of inhibition entry on IPC synthase is listed as “non-competitive inhibitor”. In the test on T. cruzi enzyme (TcIPCS), the “T. cruzi enzyme activity” value is given as “unaffected”. In addition, the “susceptibility of Aspergillus spp. samples” value in test [5] is given as “only susceptible to Aureobasidin A in the presence of mammalian multi-drug resistance modulators”.

(Values after patent US20100292179A1, “TARGET” (The University of Durham, priority 2006, published 2010).)
